PubChem BioAssay (NCI)
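Five compound concentrations were applied to cells in 96-well plates for 48 hours; endpoints were derived by simple linear interpolation of the resulting dose-response curve. At the GI50, growth is halved. TGI: concentration producing complete growth inhibition.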

Assays:
Assay in all cases: inhibition of tumour cell growth, NCI panel, 48 h
786-0 renal = system: 786-0 renal
A549 NSCLC = system: A549 NSCLC
ACHN renal = system: ACHN renal
BT-549 breast = system: BT-549 breast
CAKI-1 renal = system: CAKI-1 renal
CCRF-CEM leukemia = system: CCRF-CEM leukemia
COLO 205 colon = system: COLO 205 colon
DU-145 prostate = system: DU-145 prostate
EKVX NSCLC = system: EKVX NSCLC
HCC-2998 colon = system: HCC-2998 colon
HCT-116 colon = system: HCT-116 colon
HCT-15 colon = system: HCT-15 colon
HL-60(TB) leukemia = system: HL-60(TB) leukemia
HOP-62 NSCLC = system: HOP-62 NSCLC
HOP-92 NSCLC = system: HOP-92 NSCLC
HS 578T breast = system: HS 578T breast
HT29 colon = system: HT29 colon
IGROV1 ovarian = system: IGROV1 ovarian
K-562 leukemia = system: K-562 leukemia
KM12 colon = system: KM12 colon
LOX IMVI melanoma = system: LOX IMVI melanoma
M14 melanoma = system: M14 melanoma
MALME-3M melanoma = system: MALME-3M melanoma
MCF7 breast = system: MCF7 breast
MDA-MB-231 breast = system: MDA-MB-231 breast
MDA-MB-435 = system: MDA-MB-435
MOLT-4 leukemia = system: MOLT-4 leukemia
NCI-H226 lung = system: NCI-H226 lung
NCI-H23 lung = system: NCI-H23 lung
NCI-H460 lung = system: NCI-H460 lung
NCI-H522 lung = system: NCI-H522 lung
NCI/ADR-RES ovarian = system: NCI/ADR-RES ovarian
OVCAR-3 ovarian = system: OVCAR-3 ovarian
OVCAR-4 ovarian = system: OVCAR-4 ovarian
OVCAR-5 ovarian = system: OVCAR-5 ovarian
OVCAR-8 ovarian = system: OVCAR-8 ovarian
PC-3 prostate = system: PC-3 prostate
RPMI-8226 leukemia = system: RPMI-8226 leukemia
RXF 393 renal = system: RXF 393 renal
SF-268 CNS = system: SF-268 CNS
SF-295 CNS = system: SF-295 CNS
SF-539 CNS = system: SF-539 CNS
SK-MEL-2 melanoma = system: SK-MEL-2 melanoma
SK-MEL-28 melanoma = system: SK-MEL-28 melanoma
SK-MEL-5 melanoma = system: SK-MEL-5 melanoma
SK-OV-3 ovarian = system: SK-OV-3 ovarian
SN12C renal = system: SN12C renal
SNB-19 CNS = system: SNB-19 CNS
SNB-75 CNS = system: SNB-75 CNS
SR leukemia = system: SR leukemia
SW-620 colon = system: SW-620 colon
T-47D breast = system: T-47D breast
TK-10 renal = system: TK-10 renal
U251 CNS = system: U251 CNS
UACC-257 melanoma = system: UACC-257 melanoma
UACC-62 melanoma = system: UACC-62 melanoma
UO-31 renal = system: UO-31 renal
A498 renal = system: A498 renal

O=S(=O)(Nc1cc(Cl)ccc1Cl)c1ccc(-c2cnc(C3CC3)o2)cc1
GI50 (786-0 renal): 0.539 µM | TGI (786-0 renal): 20.9 µM | GI50 (A549 NSCLC): 1.66 µM | TGI (A549 NSCLC): > 100 µM | GI50 (ACHN renal): 4.1 µM | TGI (ACHN renal): 76.6 µM | GI50 (BT-549 breast): 0.449 µM | TGI (BT-549 breast): 14.9 µM | GI50 (CAKI-1 renal): 0.647 µM | TGI (CAKI-1 renal): 52.1 µM | GI50 (CCRF-CEM leukemia): 0.592 µM | TGI (CCRF-CEM leukemia): > 100 µM | GI50 (COLO 205 colon): 1.84 µM | TGI (COLO 205 colon): 13.4 µM | GI50 (DU-145 prostate): 3.72 µM | TGI (DU-145 prostate): > 100 µM | GI50 (EKVX NSCLC): 5.24 µM | TGI (EKVX NSCLC): 85.4 µM | GI50 (HCC-2998 colon): 3.03 µM | TGI (HCC-2998 colon): 25.2 µM | GI50 (HCT-116 colon): 0.453 µM | TGI (HCT-116 colon): 15 µM | GI50 (HCT-15 colon): 0.608 µM | TGI (HCT-15 colon): > 100 µM | GI50 (HL-60(TB) leukemia): 0.468 µM | TGI (HL-60(TB) leukemia): 16.4 µM | GI50 (HOP-62 NSCLC): 1.64 µM | TGI (HOP-62 NSCLC): 27.5 µM | GI50 (HOP-92 NSCLC): 1.21 µM | TGI (HOP-92 NSCLC): 8.42 µM | GI50 (HS 578T breast): 0.701 µM | TGI (HS 578T breast): 24 µM | GI50 (HT29 colon): 0.654 µM | TGI (HT29 colon): 13.5 µM | GI50 (IGROV1 ovarian): 0.673 µM | TGI (IGROV1 ovarian): > 100 µM | GI50 (K-562 leukemia): 0.4 µM | TGI (K-562 leukemia): > 100 µM | GI50 (KM12 colon): 0.704 µM | TGI (KM12 colon): 24.4 µM | GI50 (LOX IMVI melanoma): 3.3 µM | TGI (LOX IMVI melanoma): > 100 µM | GI50 (M14 melanoma): 0.547 µM | TGI (M14 melanoma): 10.5 µM | GI50 (MALME-3M melanoma): 10.8 µM | TGI (MALME-3M melanoma): 57.6 µM | GI50 (MCF7 breast): 0.557 µM | TGI (MCF7 breast): > 100 µM | GI50 (MDA-MB-231 breast): 4.31 µM | TGI (MDA-MB-231 breast): 43 µM | GI50 (MDA-MB-435): 0.346 µM | TGI (MDA-MB-435): 1.49 µM | GI50 (MOLT-4 leukemia): 1.64 µM | TGI (MOLT-4 leukemia): > 100 µM | GI50 (NCI-H226 lung): 4.55 µM | TGI (NCI-H226 lung): 38.6 µM | GI50 (NCI-H23 lung): 2.84 µM | TGI (NCI-H23 lung): 67.2 µM | GI50 (NCI-H460 lung): 0.769 µM | TGI (NCI-H460 lung): 17.4 µM | GI50 (NCI-H522 lung): 1.75 µM | TGI (NCI-H522 lung): 39.2 µM | GI50 (NCI/ADR-RES ovarian): 1.22 µM | TGI (NCI/ADR-RES ovarian): 82.6 µM | GI50 (OVCAR-3 ovarian): 0.512 µM | TGI (OVCAR-3 ovarian): 14.8 µM | GI50 (OVCAR-4 ovarian): 11.8 µM | TGI (OVCAR-4 ovarian): > 100 µM | GI50 (OVCAR-5 ovarian): 3.39 µM | TGI (OVCAR-5 ovarian): > 100 µM | GI50 (OVCAR-8 ovarian): 3.95 µM | TGI (OVCAR-8 ovarian): > 100 µM | GI50 (PC-3 prostate): 0.563 µM | TGI (PC-3 prostate): 17 µM | GI50 (RPMI-8226 leukemia): 2.44 µM | TGI (RPMI-8226 leukemia): > 100 µM | GI50 (RXF 393 renal): 1.06 µM | TGI (RXF 393 renal): 6.65 µM | GI50 (SF-268 CNS): 10.7 µM | TGI (SF-268 CNS): 71.3 µM | GI50 (SF-295 CNS): 0.406 µM | TGI (SF-295 CNS): 10.3 µM | GI50 (SF-539 CNS): 1.24 µM | TGI (SF-539 CNS): 10.2 µM | GI50 (SK-MEL-2 melanoma): 11.1 µM | TGI (SK-MEL-2 melanoma): 68.8 µM | GI50 (SK-MEL-28 melanoma): 6.21 µM | TGI (SK-MEL-28 melanoma): 82.8 µM | GI50 (SK-MEL-5 melanoma): 3.36 µM | TGI (SK-MEL-5 melanoma): 21.8 µM | GI50 (SK-OV-3 ovarian): 5.3 µM | TGI (SK-OV-3 ovarian): 85.5 µM | GI50 (SN12C renal): 4.32 µM | TGI (SN12C renal): > 100 µM | GI50 (SNB-19 CNS): 1.51 µM | TGI (SNB-19 CNS): > 100 µM | GI50 (SNB-75 CNS): 0.475 µM | TGI (SNB-75 CNS): 3.88 µM | GI50 (SR leukemia): 0.551 µM | TGI (SR leukemia): > 100 µM | GI50 (SW-620 colon): 0.814 µM | TGI (SW-620 colon): > 100 µM | GI50 (T-47D breast): 1.94 µM | TGI (T-47D breast): > 100 µM | GI50 (TK-10 renal): 13.6 µM | TGI (TK-10 renal): > 100 µM | GI50 (U251 CNS): 2 µM | TGI (U251 CNS): 68.2 µM | GI50 (UACC-257 melanoma): 15 µM | TGI (UACC-257 melanoma): 56.4 µM | GI50 (UACC-62 melanoma): 0.399 µM | TGI (UACC-62 melanoma): 23.9 µM | GI50 (UO-31 renal): 2.49 µM | TGI (UO-31 renal): 43.5 µM

COc1cc(/C=C/C(=O)CC(=O)/C=C/c2ccc(O)c(OC)c2)ccc1O
TGI (786-0 renal): 10.8 µM | TGI (A498 renal): 33.1 µM | TGI (A549 NSCLC): 31.7 µM | TGI (ACHN renal): 28.9 µM | TGI (BT-549 breast): 13.7 µM | TGI (CAKI-1 renal): 25.1 µM | TGI (CCRF-CEM leukemia): 15.6 µM | TGI (COLO 205 colon): 28.9 µM | TGI (DU-145 prostate): 29.7 µM | TGI (EKVX NSCLC): […] | TGI (HCC-2998 colon): 8.08 µM | TGI (HCT-116 colon): 9.36 µM | TGI (HCT-15 colon): 18.5 µM | TGI (HL-60(TB) leukemia): 25 µM | TGI (HOP-62 NSCLC): 19.1 µM | TGI (HS 578T breast): 58.5 µM | TGI (HT29 colon): 32.4 µM | TGI (IGROV1 ovarian): 26.7 µM | TGI (K-562 leukemia): > 55.6 µM | TGI (KM12 colon): 19.7 µM | TGI (LOX IMVI melanoma): 15.5 µM | TGI (M14 melanoma): 16 µM | TGI (MALME-3M melanoma): 27.4 µM | TGI (MCF7 breast): 34.3 µM | TGI (MDA-MB-231 breast): 55.7 µM | TGI (MDA-MB-435): 12.1 µM | TGI (MOLT-4 leukemia): 18 µM | TGI (NCI-H226 lung): 53.7 µM | TGI (NCI-H23 lung): 31.8 µM | TGI (NCI-H460 lung): 23.1 µM | TGI (NCI-H522 lung): 16.7 µM | TGI (NCI/ADR-RES ovarian): 27.6 µM | TGI (OVCAR-3 ovarian): 24.7 µM | TGI (OVCAR-4 ovarian): 36.6 µM | TGI (OVCAR-5 ovarian): […] | TGI (OVCAR-8 ovarian): 28.4 µM | TGI (PC-3 prostate): 26 µM | TGI (RPMI-8226 leukemia): 6.28 µM | TGI (RXF 393 renal): 11.3 µM | TGI (SF-268 CNS): 36.1 µM | TGI (SF-295 CNS): 20.7 µM | TGI (SF-539 CNS): 8.87 µM | TGI (SK-MEL-2 melanoma): 40.3 µM | TGI (SK-MEL-28 melanoma): 15.9 µM | TGI (SK-MEL-5 melanoma): 22.5 µM | TGI (SK-OV-3 ovarian): 21 µM | TGI (SN12C renal): 25.1 µM | TGI (SNB-19 CNS): 15.7 µM | TGI (SNB-75 CNS): 18 µM | TGI (SR leukemia): 14.6 µM | TGI (SW-620 colon): 21.2 µM | TGI (T-47D breast): 46.9 µM | TGI (TK-10 renal): 30.6 µM | TGI (U251 CNS): 16.5 µM | TGI (UACC-257 melanoma): 23.9 µM | TGI (UACC-62 melanoma): 20.6 µM | TGI (UO-31 renal): 24.8 µM
